Patent US20130041005A1, “PHARMACEUTICAL COMPOSITIONS COMPRISING NEUROPILIN INHIBITORS, AND THEIR USE FOR THE PREVENTION AND/OR TREATMENT OF ANGIOGENIC DISORDERS AND CANCERS” (TRAGEX PHARMA, priority 2011, published 2013)

Assays:
[1] = target: T1, NRP-1 (Homo sapiens, UniProt O14786); experiment: ELISA inhibition of VEGF binding to NRP-1; details: for inhibition at 10 µM: compounds at 10 μM
T1 construct: purchased R&D Systems, UK 3870-N1-025
T1 sequence (O14786 22-644 isoform O14786-2 limits assumed): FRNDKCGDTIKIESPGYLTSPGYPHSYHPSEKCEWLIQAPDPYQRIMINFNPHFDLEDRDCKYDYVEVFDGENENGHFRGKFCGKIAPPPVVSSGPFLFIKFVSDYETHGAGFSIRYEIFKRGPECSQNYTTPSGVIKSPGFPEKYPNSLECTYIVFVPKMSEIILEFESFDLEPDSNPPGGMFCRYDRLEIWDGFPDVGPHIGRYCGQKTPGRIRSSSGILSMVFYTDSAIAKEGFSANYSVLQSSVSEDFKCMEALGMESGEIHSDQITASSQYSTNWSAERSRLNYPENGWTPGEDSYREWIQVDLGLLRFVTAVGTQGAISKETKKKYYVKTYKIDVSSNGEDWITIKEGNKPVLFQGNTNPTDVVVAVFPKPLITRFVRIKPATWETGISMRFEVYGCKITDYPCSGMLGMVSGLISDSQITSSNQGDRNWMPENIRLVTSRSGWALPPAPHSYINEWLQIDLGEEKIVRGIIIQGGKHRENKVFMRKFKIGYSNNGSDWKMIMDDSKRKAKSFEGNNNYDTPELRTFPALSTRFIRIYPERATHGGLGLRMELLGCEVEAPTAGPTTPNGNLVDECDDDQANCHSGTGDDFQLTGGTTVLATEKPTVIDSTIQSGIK
Experimental: Elisa test was performed covering a 96-well microplate (BD Biosciences, France, cat no 353046) surface with 100 μl of 1×PBS, pH 7.4 with Ca^2+ and Mg^2+, (Lonza, France, cat no 17-513F/12) solution containing 0.2 μg/ml of VEGF-R1 (R&D Systems, UK, cat no 321-FL-050/CF) or 2 μg/ml of NRP-1 (R&D Systems, UK, cat no 3870-N1-025) or NRP-2 (R&D Systems, UK, cat no […]). The plate was sealed and incubated overnight at 4° C. After 3 washes with 200 μl of 1×PBS 0.5% (v/v) Tween 20 (Sigma, France, cat no 34078) (Buffer A), the plate was blocked by adding 200 μl of 1×PBS with 0.5% (w/v) BSA (Eurobio, France, cat no GAUBSA01-65) and agitated at 37° C. for 2 h. After washing five times with Buffer A, 50 μl/well of the compounds of the invention at 10 μM were added for the specific signal and 50 μl/well for the non-specific and max binding signal and incubated at 37° C. for 1 hour, shacking. 50 μl of btVEGF (R&D Systems, UK, cat no NFVEO) at […] for NRP-1/4 μg/ml Heparin (Sigma, USA, cat no H3393-10KU), 300 μg/ml for NRP-2 and 100 μg/ml for VEGF-R1 solution was added to each well; the plate was sealed and incubated at 37° C. for 2 h, shacking. The last incubation was carried out, after five washes with Buffer A, adding 100 μl/well Streptavidin-Horseradish Peroxidase (Amersham, Switzerland, cat no RPN4401) diluted 1:8000 with buffer A. After 1 h shacking at 37° C. under obscurity, the plate was washed 5 times with buffer A and 100 μl of SuperSignal west picochemiluminescent substrate (Interchim, USA cat no 34078) were added. Luminescence was quantified with an EnVision™ 2101 Multilabel reader (Perkin Elmer, USA) and the data analyzed by Wallac Envision manager software. Signal is given as relative light units (RLU). Non-specific binding is defined as the signal measured in the absence of receptor coated on the microplate. The specific binding was calculated as the difference between total binding and non-specific binding. The percentage of inhibition was calculated as following: […]

[2] = tested on: A549; experiment: WST-1 proliferation assay, A549; format: cell-based; details: Homo sapiens; Lung A549; read-out: Anti-proliferative activity IC50 (μM) ± SD
Experimental: (§1) All the cancer cell lines were maintained in cultured in DMEM GlutaMAX™ (GIBCO Invitrogen, France, cat no 31966047) enhanced with 10% foetal bovine serum (GIBCO Invitrogen, France, cat no 10270-106) and 1% penicillin G/streptomycin (GIBCO Invitrogen, France, cat no 15140-122). Only Panc-10.5 cells were cultivated in RPMI 1640 medium (Gibco) supplemented with 2 mM L-glutamine, 1.5 g/L sodium bicarbonate, 4.5 g/L glucose, 10 mM HEPES, 1 mM sodium pyruvate, 10 Units/ml human insulin, […] (SVF): 15% (75 ml in 500 ml of medium).
(§2) Cells were grown as subconfluent monolayer and cultured in 75 cm^2 flasks at 37° C., 5% CO2 in a humidified atmosphere, and medium was changed every two days. […]
(§3) The cell proliferation WST-1 assay is a colorimetric assay for the quantification of cell proliferation and viability, based on the enzymatic cleavage of the tetrazolium salt WST-1 added to the culture medium, to a water soluble colored formazan dye, detected by absorbance at 450 nm, by mitochondrial succinate-tetrazolium reductase in viable cells. […]
(§4) After an incubation period of 72 h, at day 4, were prepared the 19 ml medium with reagent WST-1 1 ml ([…]). […] The cells were incubated at 37° C. in a humidified atmosphere of 5% CO2 for 1 h 30 and the absorbance at 450-655 nm was measured by Microplate Manager 5.2 (Bio-Rad).

[3] = tested on: GRANTA-519; experiment: WST-1 proliferation assay, GRANTA-519; format: cell-based; details: Homo sapiens; Mantle cell lymphoma GRANTA-519; read-out: Anti-proliferative activity IC50 (μM) ± SD
Experimental: as §1, §2, §3, §4

[4] = tested on: breast cancer cells (MDA-MB-231); experiment: Motility assay (videomicroscopy), MDA-MB-231; format: cell-based, Human; details: IC50 concentration, 24 h (FIG. 6)
Experimental: The dishes were placed in an enclosed warming incubator on the motorized stage of a computer-controlled Eclipse Ti inverted microscope (Nikon Instruments Europe) equipped with a CCD Cool-SNAP HQ2 camera (Roper Scientific, USA) and a PC workstation. The incubator allowed samples to be kept at 37° C. in a humidified atmosphere containing 5% CO2, 95% air. Phase images were recorded at 100× every 5 min simultaneously over several fields from 0 till 24 h (288 frames). Cell motility was tracked and analyzed for at least 25 cells in each field over three independent experiments. The total distance of migration and the speed of migration were analyzed. The degree of persistence of movement was defined as the ratio between the linear distance and the total distance covered by the cells. Image acquisition and analyses were carried out using Metamorph 7 software (Universal Imaging).

SMILES	IC50 [1] [nM]	inhibition at 10 µM [1] [%]	IC50 [2] [µM]	IC50 [3] [µM]	motility (migration speed) of cancer cells [4]
Cc1ccc(-c2nc3ccccc3[nH]2)cc1NC(=S)NC(=O)c1ccc2c(c1)OCCO2 [Compound 1, N-[5-(1H-benzimidazol-2-yl)-2-methylphenyl]-N′-(2,3-dihydro-1,4-benzodioxin-6-ylcarbonyl)thiourea]	38000 ± 2080	35 ± 4	0.4 ± 0.04	1	significant anti-migratory effect
O=C(NC(=S)Nc1cccc(-c2nc3ccccc3[nH]2)c1)c1ccc2c(c1)OCCO2 [Compound 2, N-[3-(1H-benzimidazol-2-yl)phenyl]-N′-(2,3-dihydro-1,4-benzodioxin-6-ylcarbonyl)thiourea]	34000 ± 3110	24 ± 2	0.1 ± 0.04	0.5 ± 0.02	significant anti-migratory effect
